Measured values as given in PubChem BioAssay AID2060610 (Molecular Pharmacology Branch, DTP, NCI, 2025).
Values joined by “and” are separate entries in the source; they are usually repeats but may differ in a detail not shown here. Equal values may be shown once.

Tested on: 616215-338-R-J1-PDC complex spheroids, viability % test/control
Assay: Anticancer human tumor 616215-338-R-J1-PDC patient-derived colon adenocarcinoma cell line growth inhibition [CLK]
Conditions: for viability, T/C: stronger effect = lower value
Summary of the method: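 Multi-cell-type spheroids combined patient-derived tumor cells with HUVEC endothelial cells and human mesenchymal stem cells. Paired agents were dosed in half-log steps down from about clinical Cmax, or from 10 microM where Cmax was unknown.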

[1] = curve of first compound, second compound 0.0316 µM
[2] = curve of first compound, second compound 0.1 µM
[3] = curve of first compound, second compound 0.316 µM
[4] = curve of first compound, second compound 1 µM
[5] = curve of first compound, second compound 3.16 µM
[6] = curve of first compound, second compound 10 µM
[7] = second compound 0.0316 µM, first compound 0.00316 µM
[8] = second compound 0.0316 µM, first compound 0.01 µM
[9] = second compound 0.0316 µM, first compound 0.0316 µM
[10] = second compound 0.0316 µM, first compound 0.1 µM
[11] = second compound 0.1 µM, first compound 0.00316 µM
[12] = second compound 0.1 µM, first compound 0.01 µM
[13] = second compound 0.1 µM, first compound 0.0316 µM
[14] = second compound 0.1 µM, first compound 0.1 µM
[15] = second compound 0.316 µM, first compound 0.00316 µM
[16] = second compound 0.316 µM, first compound 0.01 µM
[17] = second compound 0.316 µM, first compound 0.0316 µM
[18] = second compound 0.316 µM, first compound 0.1 µM
[19] = second compound 1 µM, first compound 0.00316 µM
[20] = second compound 1 µM, first compound 0.01 µM
[21] = second compound 1 µM, first compound 0.0316 µM
[22] = second compound 1 µM, first compound 0.1 µM
[23] = second compound 3.16 µM, first compound 0.00316 µM
[24] = second compound 3.16 µM, first compound 0.01 µM
[25] = second compound 3.16 µM, first compound 0.0316 µM
[26] = second compound 3.16 µM, first compound 0.1 µM
[27] = second compound 10 µM, first compound 0.00316 µM
[28] = second compound 10 µM, first compound 0.01 µM
[29] = second compound 10 µM, first compound 0.0316 µM
[30] = second compound 10 µM, first compound 0.1 µM
[31] = second compound 0.0316 µM, first compound 0.316 µM
[32] = second compound 0.0316 µM, first compound 1 µM
[33] = second compound 0.0316 µM, first compound 3.16 µM
[34] = second compound 0.0316 µM, first compound 10 µM
[35] = second compound 0.1 µM, first compound 0.316 µM
[36] = second compound 0.1 µM, first compound 1 µM
[37] = second compound 0.1 µM, first compound 3.16 µM
[38] = second compound 0.1 µM, first compound 10 µM
[39] = second compound 0.316 µM, first compound 0.316 µM
[40] = second compound 0.316 µM, first compound 1 µM
[41] = second compound 0.316 µM, first compound 3.16 µM
[42] = second compound 0.316 µM, first compound 10 µM
[43] = second compound 1 µM, first compound 0.316 µM
[44] = second compound 1 µM, first compound 1 µM
[45] = second compound 1 µM, first compound 3.16 µM
[46] = second compound 1 µM, first compound 10 µM
[47] = second compound 3.16 µM, first compound 0.316 µM
[48] = second compound 3.16 µM, first compound 1 µM
[49] = second compound 3.16 µM, first compound 3.16 µM
[50] = second compound 3.16 µM, first compound 10 µM
[51] = second compound 10 µM, first compound 0.316 µM
[52] = second compound 10 µM, first compound 1 µM
[53] = second compound 10 µM, first compound 3.16 µM
[54] = second compound 10 µM, first compound 10 µM
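Also: spheroids exposed to agents for 7 days.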
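For viability, T/C in this document: 100% = DMSO vehicle wells.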

Work on `Cn1ncnc1[C@H]1c2n[nH]c(=O)c3cc(F)cc(c23)N[C@@H]1c1ccc(F)cc1` + CN1CCN(c2cc(C(=O)Nc3cc4cc(-c5cnn(C)c5)ccc4cn3)ccn2)CC1 yielded an IC50 [1] greater than 100 nM, an IC50 [2] greater than 100 nM and an IC50 [3] of less than 0.316 nM. It also gave an IC50 [4] of less than 0.316 nM, an IC50 [5] of less than 0.316 nM and an IC50 [6] of less than 0.316 nM. For the same compound, the viability, T/C (second compound 0.0316 µM, first compound 0.000316 µM) was 113%, the viability, T/C (second compound 0.0316 µM, first compound 0.001 µM) was 96.3% and the viability, T/C [7] was 99.7%. The viability, T/C [8] was 122%, the viability, T/C [9] was 98.3% and the viability, T/C [10] was 112%. For the same compound, the viability, T/C (second compound 0.1 µM, first compound 0.000316 µM) was 119%, the viability, T/C (second compound 0.1 µM, first compound 0.001 µM) was 106% and the viability, T/C [11] was 102%. The viability, T/C [12] was 105%, the viability, T/C [13] was 101% and the viability, T/C [14] was 69.5%. The viability, T/C (second compound 0.316 µM, first compound 0.000316 µM) was 29.3%, the viability, T/C (second compound 0.316 µM, first compound 0.001 µM) was 35.2% and the viability, T/C [15] was 39.2%. The viability, T/C [16] was 38.7%, the viability, T/C [17] was 36.5% and the viability, T/C [18] was 32%. For the same compound, the viability, T/C (second compound 1 µM, first compound 0.000316 µM) was 0.12%, the viability, T/C (second compound 1 µM, first compound 0.001 µM) was 0.14% and the viability, T/C [19] was 1.57%. The viability, T/C [20] was 0.1%, the viability, T/C [21] was 1.12% and the viability, T/C [22] was 4.26%. It also gave a viability, T/C (second compound 3.16 µM, first compound 0.000316 µM) of 0.1%, a viability, T/C (second compound 3.16 µM, first compound 0.001 µM) of 0.14% and a viability, T/C [23] of 2.13%. It also gave a viability, T/C [24] of 0.09%, a viability, T/C [25] of 0.08% and a viability, T/C [26] of 1.74%. It also gave a viability, T/C (second compound 10 µM, first compound 0.000316 µM) of 0.12%, a viability, T/C (second compound 10 µM, first compound 0.001 µM) of 0.17% and a viability, T/C [27] of 0.13%. The viability, T/C [28] was 0.13%, the viability, T/C [29] was 1.65% and the viability, T/C [30] was 0.15%.
With `O=c1[nH]cc(F)c(=O)[nH]1` + CN1CCN(c2cc(C(=O)Nc3cc4cc(-c5cnn(C)c5)ccc4cn3)ccn2)CC1 the IC50 [1] was 796 nM, the IC50 [2] was 692 nM and the IC50 [3] was less than 31.6 nM. The IC50 [4] was less than 31.6 nM, the IC50 [5] was less than 31.6 nM and the IC50 [6] was less than 31.6 nM. The viability, T/C [9] was 98.6%, the viability, T/C [10] was 119% and the viability, T/C [31] was 64.4%. It also gave a viability, T/C [32] of 46.2%, a viability, T/C [33] of 42.4% and a viability, T/C [34] of 50.6%. For the same compound, the viability, T/C [13] was 121%, the viability, T/C [14] was 109% and the viability, T/C [35] was 61.2%. It also gave a viability, T/C [36] of 49.6%, a viability, T/C [37] of 38.7% and a viability, T/C [38] of 41.1%. It also gave a viability, T/C [17] of 31.9%, a viability, T/C [18] of 34.7% and a viability, T/C [39] of 41.8%. The viability, T/C [40] was 33.3%, the viability, T/C [41] was 29.6% and the viability, T/C [42] was 26.6%. The viability, T/C [21] was 0.14%, the viability, T/C [22] was 1.14% and the viability, T/C [43] was 2.43%. The viability, T/C [44] was 0.08%, the viability, T/C [45] was 2.58% and the viability, T/C [46] was 2.28%. For the same compound, the viability, T/C [25] was 0.08%, the viability, T/C [26] was 0.42% and the viability, T/C [47] was 1.29%. For the same compound, the viability, T/C [48] was 0.07%, the viability, T/C [49] was 0.09% and the viability, T/C [50] was 0.13%. The viability, T/C [29] was 0.07%, the viability, T/C [30] was 1.38% and the viability, T/C [51] was 4.56%. It also gave a viability, T/C [52] of 0.1%, a viability, T/C [53] of 2.34% and a viability, T/C [54] of 0.19%.
`Nc1ccn(C2OC(CO)C(O)C2(F)F)c(=O)n1` (stereo not given) + CN1CCN(c2cc(C(=O)Nc3cc4cc(-c5cnn(C)c5)ccc4cn3)ccn2)CC1 gave an IC50 [1] of less than 31.6 nM, an IC50 [2] of less than 31.6 nM and an IC50 [3] of less than 31.6 nM. For the same compound, the IC50 [4] was less than 31.6 nM, the IC50 [5] was less than 31.6 nM and the IC50 [6] was less than 31.6 nM. The viability, T/C [9] was 15.5%, the viability, T/C [10] was 10.3% and the viability, T/C [31] was 14.1%. For the same compound, the viability, T/C [32] was 13.6%, the viability, T/C [33] was 14.3% and the viability, T/C [34] was 12.7%. For the same compound, the viability, T/C [13] was 18%, the viability, T/C [14] was 14.5% and the viability, T/C [35] was 14%. It also gave a viability, T/C [36] of 14.3%, a viability, T/C [37] of 17% and a viability, T/C [38] of 18%. It also gave a viability, T/C [17] of 13.8%, a viability, T/C [18] of 11% and a viability, T/C [39] of 13.8%. For the same compound, the viability, T/C [40] was 10.6%, the viability, T/C [41] was 12.1% and the viability, T/C [42] was 13.3%. It also gave a viability, T/C [21] of 0.1%, a viability, T/C [22] of 0.13% and a viability, T/C [43] of 2.94%. For the same compound, the viability, T/C [44] was 0.12%, the viability, T/C [45] was 1.83% and the viability, T/C [46] was 1.85%. It also gave a viability, T/C [25] of 0.1%, a viability, T/C [26] of 0.13% and a viability, T/C [47] of 0.14%. The viability, T/C [48] was 0.09%, the viability, T/C [49] was 0.1% and the viability, T/C [50] was 0.11%. For the same compound, the viability, T/C [29] was 0.15%, the viability, T/C [30] was 1.73% and the viability, T/C [51] was 0.16%. It also gave a viability, T/C [52] of 2%, a viability, T/C [53] of 3.33% and a viability, T/C [54] of 0.18%.
Compound `CCN1CCN(Cc2ccc(Nc3ncc(F)c(-c4cc(F)c5nc(C)n(C(C)C)c5c4)n3)nc2)CC1` + CNC(=O)c1ccc(Nc2nc(OC3CCCC3)c3c(-c4ccc5nc(C)oc5c4)c[nH]c3n2)c(OC)c1 has an IC50 [1] of 928 nM, an IC50 [2] of 285 nM and an IC50 [3] of less than 3.16 nM. The IC50 [4] was 136 nM, the IC50 [5] was 357 nM and the IC50 [6] was less than 3.16 nM. For the same compound, the viability, T/C [7] was 83%, the viability, T/C [8] was 93.2% and the viability, T/C [9] was 95.5%. It also gave a viability, T/C [10] of 137%, a viability, T/C [31] of 130% and a viability, T/C [32] of 46%. For the same compound, the viability, T/C [11] was 51.6%, the viability, T/C [12] was 55% and the viability, T/C [13] was 56.3%. For the same compound, the viability, T/C [14] was 58%, the viability, T/C [35] was 48.1% and the viability, T/C [36] was 26.7%. The viability, T/C [15] was 45.5%, the viability, T/C [16] was 49.2% and the viability, T/C [17] was 53.5%. The viability, T/C [18] was 50.3%, the viability, T/C [39] was 47.9% and the viability, T/C [40] was 28.2%. For the same compound, the viability, T/C [19] was 51.8%, the viability, T/C [20] was 49.1% and the viability, T/C [21] was 59.6%. For the same compound, the viability, T/C [22] was 55%, the viability, T/C [43] was 39.5% and the viability, T/C [44] was 28.6%. For the same compound, the viability, T/C [23] was 47.4%, the viability, T/C [24] was 50.3% and the viability, T/C [25] was 53%. The viability, T/C [26] was 54.1%, the viability, T/C [47] was 61.2% and the viability, T/C [48] was 22.7%. For the same compound, the viability, T/C [27] was 41.6%, the viability, T/C [28] was 46.8% and the viability, T/C [29] was 58.5%. For the same compound, the viability, T/C [30] was 52.2%, the viability, T/C [51] was 46% and the viability, T/C [52] was 29.2%.
In the case of `C=CC(=O)N1CCN(c2nc(=O)n(-c3c(C)ccnc3C(C)C)c3nc(-c4c(O)cccc4F)c(F)cc23)C(C)C1` (stereo not given), the viability, T/C (compound 0.0316 µM) is reported as 95.4% and 104%, the viability, T/C (compound 0.1 µM) is reported as 101% and 108% and the viability, T/C (compound 0.316 µM) is reported as 106% and 119%. The viability, T/C (compound 1 µM) was 112% and 98.6%, the viability, T/C (compound 3.16 µM) was 108% and 110% and the viability, T/C (compound 10 µM) was 106% and 113%. For the same compound, the IC50 (curve of compound) was greater than 10000 nM.
